# Source: patent publication US6610540B1, “Low oxygen culturing of central nervous system progenitor cells” (California Institute of Technology, priority 1998, dated 2003)
# Test system: E12 mesencephalic precursor cultures
# Test: Dopaminergic / neuronal subtype differentiation of expanded mesencephalic precursor cultures (TH+ cell counts by immunohistochemistry)
# Type: cell-based, rat
# Details: under both oxygen conditions
# Source text: Culture of CNS Stem Cells. Animals were housed and treated following NIH guidelines. Cells dissected from rat embryonic lateral ganglionic eminence (E14) or mesencephalon (E12) were mechanically dissociated, plated on plastic 24-well plates (Costar) or 12 mm glass cover slips (Carolina Biologicals) precoated with polyornithine/fibronectin, and grown in defined medium with bFGF (Studer et al., 1998; Johe et al., 1996). In general, bFGF was withdrawn from the medium after 4-6 days of culture. Clonal assays were carried out in plastic 48-well plates (Costar). In some studies, recombinant human (rh)EPO, rhVEGF165 or recombinant mouse (rm)FGF8b, or their neutralizing antibodies (all from R&D Systems) were added to cultures at the following concentrations: EPO 0.5 U/ml, EPO neutralizing antibody 10 μg/ml, FGF8 250 ng/ml, FGF8b neutralizing antibody 5 μg/ml, VEGF 50 ng/ml, VEGF neutralizing antibody 0.5 μg/ml. […]
# Immunohistochemistry. […] Appropriate fluorescence-tagged (Jackson Immunoresearch) or biotinylated (Vector Laboratories) secondary antibodies followed by metal-enhanced DAB reaction (Pierce) were used for visualization.
# Cell Counts and Statistical Procedures. Uniform random sampling procedures were used for cell counts and quantified using the fractionator technique (Gundersen, et al., 1988). […] Data are expressed as mean±SEM.
substance,measurement,value
sonic hedgehog,effect on expanded mesencephalic precursors (dopaminergic neuron differentiation),no effect
